From publication PMC7272640, “Molecular docking, synthesis and biological evaluation of Vascular Endothelial Growth Factor (VEGF) B based peptide as antiangiogenic agent targeting the second domain of the Vascular Endothelial Growth Factor Receptor 1 (VEGFR1D2) for anticancer application” (Signal Transduction and Targeted Therapy, 2020) come the findings set out here.

One assay concerns the target VEGFR1D2. The experiment in a line: Microscale thermophoresis (MST) binding of VGB3 to VEGFR1D2. On the procedure: Previously, a tight association between VEGFR1 D2 and VEGF has also been reported (113pM).[4]
The binding affinity of peptide to its cognate receptor was measured by Microscale thermophoresis (MST) on a Nanotemper Monolith NT.115 instrument (Nanotemper Technologies GmbH). Purified VEGFR1D2 was freshly labeled with the Monolith His-Tag RED-tris-NTA labeling dye according to the supplied protocol (Nanotemper Technologies, GmbH). The labeled protein was concentrated using a PES centrifugation filter (3 kDa cutoff; VWR). Measurements were done in MST buffer (50 mM Tris, 250 mM NaCl, pH=7) in standard capillaries (K002; Nanotemper Technologies GmbH). The final concentrations of either labeled protein in the assay were 25 nM. The ligands (VGB3) was titrated in 1:1 dilutions following manufacturer’s recommendations and starting from 0.25 mM. All binding reactions were incubated for 10 min at room temperature followed by centrifugation at 20,000 g before loading into capillaries. All measurements were performed in triplicate using automatically assigned 20% LED and 60% MST power; Laser On-time was 30 sec and Laser Off time was 5 sec.
On the technique in general: MST reads how a fluorescent partner responds to local heating, with and without ligand.

Assay [1] deals with HUVEC. The class given is cell-based, human. On the procedure:
2× 10^3 HUVEC and 4T1 cell-line were cultured in DMEM medium supplemented with 10% FBS at 37 °C with 5% CO2 in 96-well plate. After 24 h, The cells were incubated in the media supplemented with 2% FBS, different concentrations (0, 0.015, 0.03, 0.061 μM) of VGB3 in the presence of (0.03 μg.ml^-1) VEGF-A (Sigma, St. Louis, MO) for 24 and 48 respectively. Then, cell proliferation was quantified by 3-(4,5–dimethylthiazol-2-yl)-2 ,5-diphenyl tetrazolium bromide (MTT) (Sigma, St. Louis, MO) solution (5 mg/mL) in PBS (pH 7.4) was added to each well and the plates were incubated in the dark at 37 °C for 4 h. Then the insoluble purple formazan product was dissolved by dimethyl sulfoxide (DMSO). Absorbance was measured at 570 nm using an ELISA plate reader. The assay was performed in triplicate.

For assay [2], the system named is human extracellular domains (ECD) of VEGFR1D2. The experiment in a line: ELISA-based displacement assay (VEGF-A/VEGFR-1 interaction). The class given is binding. Conditions: at 100 μM VGB3; btVEGF165 100 pM; plate coated with VEGFR1D2 ECD 20 ng/well, 5 nM; PBS; peptide 45 min at 37 °C then 2 h with btVEGF-A165; chemiluminescence; triplicate wells. As to the method: A white flat-bottom high-binding 96-well plate (COSTAR 3922) was coated with human extracellular domains (ECD) of VEGFR1D2 (R&D Systems, Abingdon, UK) in PBS (20 ng/well, 5 nM) overnight at 4 °C. The plate was washed twice with 200 μL of wash buffer (PBS containing 0.1% (v/v) Tween 20) and treated with 200 μL of blocking buffer (PBS containing 3% (w/v) BSA) at 37 °C for 2 h, followed by two washes with wash buffer. Volumes of 50 μL of peptide VGB3 solution at twice the desired final concentration in PBS were added in triplicate wells and the plate was kept at 37 °C for 45 min. A solution of btVEGF-A165 (R & D Systems, Abingdon, UK) at twice the desired final concentration (100 pM) in 50 μL PBS was added. After 2 h incubation, the plate was washed two times with wash buffer. […] Volumes of 100 μL of Supersignal West Pico Chemiluminescent Substrate (Pierce, Rockford, IL, USA) were finally added and the chemiluminescence was quantified with a TECAN spectrophotometer plate-reader. The percentages of displacement were calculated by the following formula: 100×[1 – (S − NS)/(MS – NS)] where S is the signal measured, NS is the nonspecific binding signal defined as the signal measured in the absence of coated receptor on the microplate, and MS is the maximum binding signal obtained with btVEGF-A165 without the peptide VGB3.
(In general: An ELISA detects its analyte on a solid surface through an enzyme-linked reagent.)

In assay [3] the test system is HUVEC. The experiment in a line: Wound healing assay (HUVEC migration). The class given is cell-based, human. To be noted: compared with control; VGB3 0, 0.015, 0.03, 0.061 μM, 0.03 μg/ml VEGF-A, 2% FBS, 24 h. On the procedure:
3 × 10^3 HUVECs were grown to confluence in 96-well plate. The monolayer was mechanically wounded using a sterile pipette tip followed by washing with PBS. The cells were incubated in the serum-starved DMEM medium containing 2% FBS and different concentrations (0, 0.015, 0.03, 0.061 μM) of VGB3 in the presence of (0.03 μg.ml^-1) VEGF-A for 24 h. Then HUVECs were washed with PBS two times and fixed using 4% paraformaldehyde at room temperature. After staining the cells with Giemsa, photographs were taken under a microscope (scale bar: 20 μm; Olympus BX-51, Japan) immediately and after 24 h incubation at the same location. Data are expressed as the average percentage wound closure for each group (n=6) of initial migrated cells at time 0 (T0), or as the percentage inhibition compared with a time-matched control. The wound area (the open area of the scratch) was quantified using ImageJ: (1 - (wound area at 24 h / wound area at 0 h))×100.

Where a SMILES comes first, the peptide text is derived from it.

`CC(C)C[C@@H]1NC(=O)CNC(=O)[C@H](CC(=O)O)NC(=O)[C@H](CC(=O)O)NC(=O)[C@@H]2CCCN2C(=O)[C@@H]2CCCN2C(=O)[C@H](CCCNC(=N)N)NC(=O)[C@@H](NC(=O)[C@@H](N)CCC(=O)O)CSSC[C@@H](C(=O)O)NC1=O` [VGB3] (HELM PEPTIDE1{E.C.R.P.P.D.D.G.L.C}$PEPTIDE1,PEPTIDE1,2:R3-10:R3$$$V2.0): the equilibrium dissociation constant (Kd) on VEGFR1D2 (MST, Monolith NT.115, His-Tag RED-tris-NTA labelled VEGFR1D2 25 nM, VGB3 titrated in 1:1 dilutions from 0.25 mM, 50 mM Tris, 250 mM NaCl, pH=7, 10 min at room temperature, triplicate, read-out: dissociation constant (Kd)) turned out to be 1960 ± 690 nM. In the assay on VEGFR1D2 (VGB3 Kd 1.96 μM vs VEGFA Kd ~50 nM), the “binding constant fold lower than Kd of VEGFA to entire extracellular portion of VEGFR1” value worked out at 40 fold. This molecule came in with a half-maximal inhibitory concentration (IC50) with HUVEC [1] (48 h) of 30 nM. Besides, the “inhibition of endothelial cell proliferation compared with other reported VEGF-B based peptides” value in the assay with HUVEC [1] (comparison with refs 2,4,5) is “more effectively inhibited endothelial cell proliferation”. Also, the “inhibition of endothelial cell proliferation compared with clinically used drugs such as Bevacizumab” value in the assay with HUVEC [1] (endothelial cell culture conditions, comparison with refs 2,4,5) is reported as “more potent”. Also, the “displacement of btVEGF165” value in assay [2] is reported as “up to 63%”. In addition, the “migration of wounded HUVEC monolayers” value with HUVEC [3] is “inhibits migration of wounded HUVEC monolayers compared with the control”.

By Kd is commonly meant the constant that tells how readily two partners part at equilibrium. The IC50 is the concentration that inhibits the measured activity by half. The low end stands for inhibition by little substance, the high end for a need for much substance.
